In patent US6432982B1, “Benzothiophenes, and formulations and methods using same” (Eli Lilly and Company, priority 1996, dated 2002):
Marks after values point to notes of the source that are not given here.

Key:
[1] = system: uterus of ovariectomized (OVX) rats; test: Uterine weight in ovariectomized rat post-menopausal model; assay type: in vivo, Sprague Dawley rats; details: for Uterine Weight % inch (Uterine Weight % increase versus the ovarierectomized controls): oral, daily for 4 days
Protocol: (§1) In the examples illustrating the methods, a post-menopausal model is used in which effects of different treatments upon circulating lipids are determined.
(§2) Seventy-five day old female Sprague Dawley rats (weight range of 200 to 225 g) are obtained from Charles River Laboratories (Portage, Mich.). The animals are either bilaterally ovariectomized (OVX) or exposed to a Sham surgical procedure at Charles River Laboratories, and then shipped after one week. Upon arrival, they are housed in metal hanging cages in groups of 3 or 4 per cage and had ad libitum access to food (calcium content approximately 0.5%) and water for one week. Room temperature is maintained at 22.2°±1.7° C. with a minimum relative humidity of 40%. The photoperiod in the room is 12 hours light and 12 hours dark.
(§3) After a one week acclimation period (therefore, two weeks post-OVX) daily dosing with test compound is initiated. 17α-ethynyl estradiol or the test compound are given orally, unless otherwise stated, as a suspension in 1% carboxymethylcellulose or dissolved in 20% cyclodextrin. Animals are dosed daily for 4 days. Following the dosing regimen, animals are weighed and anesthetized with a ketamine: Xylazine (2:1, V:V) mixture and a blood sample is collected by cardiac puncture. The animals are then sacrificed by asphyxiation with CO2, the uterus is removed through a midline incision, and a wet uterine weight is determined.

[2] = system: ovariectomized (OVX) rats; test: Serum cholesterol analysis in ovariectomized rats; assay type: in vivo, Sprague Dawley rats; details: for Serum Cholest. % Dec. (Serum cholesterol decrease versus ovariectomized controls): oral, daily for 4 days
Protocol: as §1, §2, §3
Blood samples are allowed to clot at room temperature for 2 hours, and serum is obtained following centrifugation for 10 minutes at 3000 rpm. Serum cholesterol is determined using a Boehringer Mannheim Diagnostics high performance cholesterol assay. Briefly the cholesterol is oxidized to cholest-4-en-3-one and hydrogen peroxide. The hydrogen peroxide is then reacted with phenol and 4-aminophenazone in the presence of peroxidase to produce a p-quinone imine dye, which is read spectrophotemetrically at 500 nm. Cholesterol concentration is then calculated against a standard curve. The entire assay is automated using a Biomek Automated Workstation.

[3] = system: uterine eosinophil peroxidase; test: Uterine Eosinophil Peroxidase (EPO) Assay; assay type: in vivo, Sprague Dawley rats; details: for Uterine Eosinophil (Vmax) (Eosinphil peroxidase Vmaxium): OVX rats, oral, daily for 4 days
Source text: as §2, §3
Uteri are kept at 4° C. until time of enzymatic analysis. The uteri are then homogenized in 50 volumes of 50 mM Tris buffer (pH−8.0) containing 0.005% Triton X-100. Upon addition of 0.01% hydrogen peroxide and 10 mM O-phenylenediamine (final concentrations) in Tris buffer, increase in absorbance is monitored for one minute at 450 nm. The presence of eosonophils in the uterus is an indication of estrogenic activity of a compound. The maximal velocity of a 15 second interval is determined over the initial, linear portion of the reaction curve.

[4] = system: MCF-7 breast adenocarcinoma cells; test: MCF-7 Proliferation Assay; assay type: cell-based; details: Homo sapiens, MCF7; tritiated thymidine incorporation, 48 hours with drug, versus the control (DMSO); read-out: IC50, inhibition of proliferation of MCF-7 cells
Protocol: MCF-7 breast adenocarcinoma cells (ATCC HTB 22) are maintained in MEM (minimal essential medium, phenol red-free, Sigma, St. Louis, Mo.) supplemented with 10% fetal bovine serum (FBS) (V/V), L-glutamine (2 mM), sodium pyruvate (1 mM), HEPES {(N-[2-hydroxyethyl]piperazine-N′-[2-ethanesulfonic acid]10 mM}, non-essential amino acids and bovine insulin (1 ug/mL) (maintenance medium). Ten days prior to assay, MCF-7 cells are switched to maintenance medium supplemented with 10% dextran coated charcoal stripped fetal bovine serum (DCC-FBS) assay medium) in place of 10% FBS to deplete internal stores of steroids. MCF-7 cells are removed from maintenance flasks using cell dissociation medium (Ca++/Mg++ free HBSS (phenol red-free) supplemented with 10 mM HEPES and 2 mM EDTA). Cells are washed twice with assay medium and adjusted to 80,000 cells/mL. Approximately 100 μL (8,000 cells) are added to flat-bottom microculture wells (Costar 3596) and incubated at 37° C. in a 5% CO2 humidified incubator for 48 hours to allow for cell adherence and equilibration after transfer. Serial dilutions of drugs or DMSO as a diluent control are prepared in assay medium and 50 μL transferred to triplicate microcultures followed by 50 μL assay medium for a final volume of 200 μL. […] Samples are counted by liquid scintillation using a Wallac BetaPlace β counter. […]

[5] = compared to the ovariectomized animals, EE2 orally at 0.1 mg/kg/day

Row | SMILES | Uterine Weight % inch (Uterine Weight % increase versus the ovarierectomized controls) ([1]; dose 0.1 mg/kg) | Uterine Eosinophil (Vmax) (Eosinphil peroxidase Vmaxium) ([3]; dose 0.1 mg/kg) | Uterine Weight % inch (Uterine Weight % increase versus the ovarierectomized controls) ([1]; dose 1.0 mg/kg) | Uterine Weight % inch (Uterine Weight % increase versus the ovarierectomized controls) ([1]; dose 10.0 mg/kg) | Uterine Eosinophil (Vmax) (Eosinphil peroxidase Vmaxium) ([3]; dose 1.0 mg/kg) | Uterine Eosinophil (Vmax) (Eosinphil peroxidase Vmaxium) ([3]; dose 10.0 mg/kg) | IC50 [4] | effect on uterine weight (in words) [1, 5] | effect on serum cholesterol (in words) [2, 5] | Serum Cholest. % Dec. (Serum cholesterol decrease versus ovariectomized controls) ([2]; dose 0.1 mg/kg) | eosinophil infiltration into the uterus (in words) ([3]; stromal layer of ovariectomized rat uteri) | Serum Cholest. % Dec. (Serum cholesterol decrease versus ovariectomized controls) ([2]; dose 1.0 mg/kg) | Serum Cholest. % Dec. (Serum cholesterol decrease versus ovariectomized controls) ([2]; dose 10.0 mg/kg)
1 | C#C[C@]1(O)CC[C@H]2[C@@H]3CCc4cc(O)ccc4[C@H]3CC[C@@]21C [EE2, 17α-ethynyl estradiol, reference compound] | 207.5* % | 205.8* | – | – | – | – | – | substantially greater than the uterine weight of the ovariectomized animals | caused a decrease in serum cholesterol | 87.3* % | substantial and expected increase in eosinophil infiltration | – | –
2 | Cl.O=C(c1ccc(OCCN2CCCCC2)c(F)c1)c1c(-c2ccc(O)cc2)sc2cc(O)ccc12 [compound 1, [2-(4-Hydroxyphenyl)-6-hydroxybenzo[b]thien-3-yl][4-[2-(1-piperidinyl)ethoxy]3-fluorophenyl]methanone Hydrochloride] | 18.4% | 5.4 | 14.9% | 12.5% | 4.5 | 2.7 | – | – | – | 45.1* % | – | 59.5* % | 64.1* %
3 | Cl.O=C(c1ccc(OCCN2CCCCC2)cc1Cl)c1c(-c2ccc(O)cc2)sc2cc(O)ccc12 [compound 8, [2-(4-Hydroxyphenyl)-6-hydroxybenzo[b]thien-3-yl][4-[2-(1-piperidinyl)ethoxy]2-chlorophenyl]methanone Hydrochloride] | – | – | – | 37.5* % | – | 12.0 | – | – | – | – | – | – | 42.0* %
4 | Cl.N#Cc1cc(C(=O)c2c(-c3ccc(O)cc3)sc3cc(O)ccc23)ccc1OCCN1CCCCC1 [compound 9, [2-(4-Hydroxyphenyl)-6-hydroxybenzo[b]thien-3-yl][4-[2-(1-piperidinyl)ethoxy]3-cyanophenyl]methanone Hydrochloride] | – | – | – | 16.8% | – | 7.8 | – | – | – | – | – | – | 38.8* %

Further lines, with some results ahead:

Row | Uterine Weight % inch (Uterine Weight % increase versus the ovarierectomized controls) ([1]; dose 0.1 mg/kg) | Uterine Eosinophil (Vmax) (Eosinphil peroxidase Vmaxium) ([3]; dose 0.1 mg/kg) | Uterine Weight % inch (Uterine Weight % increase versus the ovarierectomized controls) ([1]; dose 1.0 mg/kg) | Uterine Weight % inch (Uterine Weight % increase versus the ovarierectomized controls) ([1]; dose 10.0 mg/kg) | Uterine Eosinophil (Vmax) (Eosinphil peroxidase Vmaxium) ([3]; dose 1.0 mg/kg) | Uterine Eosinophil (Vmax) (Eosinphil peroxidase Vmaxium) ([3]; dose 10.0 mg/kg) | IC50 [4] | SMILES | effect on uterine weight (in words) [1, 5] | effect on serum cholesterol (in words) [2, 5] | Serum Cholest. % Dec. (Serum cholesterol decrease versus ovariectomized controls) ([2]; dose 0.1 mg/kg) | eosinophil infiltration into the uterus (in words) ([3]; stromal layer of ovariectomized rat uteri) | Serum Cholest. % Dec. (Serum cholesterol decrease versus ovariectomized controls) ([2]; dose 1.0 mg/kg) | Serum Cholest. % Dec. (Serum cholesterol decrease versus ovariectomized controls) ([2]; dose 10.0 mg/kg)
5 | −24.4% | 4.0 | −16.4% | 27.4% | 7.2 | 25.9* | 40 nM | Cc1cc(C(=O)c2c(-c3ccc(O)cc3)sc3cc(O)ccc23)cc(C)c1OCCN1CCCCC1.Cl [compound 5, [2-(4-Hydroxyphenyl)-6-hydroxybenzo[b]thien-3-yl][4-[2-(1-piperidinyl)ethoxy]3,5-dimethylphenyl]methanone Hydrochloride] | – | – | 33.8* % | – | 55.5* % | 74.9* %
6 | – | – | −35.7% | – | 2.8 | – | – | Cc1cc(C(=O)c2c(-c3ccc(O)cc3)sc3cc(O)ccc23)cc(C(C)(C)C)c1OCCN1CCCCC1.Cl [compound 6, [2-(4-Hydroxyphenyl)-6-hydroxybenzo[b]thien-3-yl][4-[2-(1-piperidinyl)ethoxy]-3-t-butyl-5-methylphenyl]methanone Hydrochloride] | – | – | – | – | 55.2* % | –
7 | – | – | – | 46.1* % | – | 30.9 | – | Cl.O=C(c1ccc(OCCN2CCCCC2)c(Cl)c1)c1c(-c2ccc(O)cc2)sc2cc(O)ccc12 [compound 7, [2-(4-Hydroxyphenyl)-6-hydroxybenzo[b]thien-3-yl][4-[2-(1-piperidinyl)ethoxy]3-chlorophenyl]methanone Hydrochloride] | – | – | – | – | – | 62.2* %
